# In patent US20250099403A1, “IDENTIFICATION OF ACTIVITIES OF GUT MICROBE METABOLITES” (UNIVERSITY OF SOUTH CAROLINA, priority 2023, published 2025):
# How the values were obtained:
# [1] = tested on: Primary mouse macrophages; assay: inflammatory cytokine expression in primary mouse macrophages, agent alone (RT-qPCR); assay type: cell-based; conditions: agent by itself, n=3
# Protocol: (§1) Primary mouse macrophages were treated with SoL A (as a representative of SoLs) either alone or together with LPS (an agonist of TLR4) or Pam3CSK4 (an agonist of TLR1/2) and the expression of three inflammatory cytokines was measured (IL-6, TNFα, and IL-1β).
# Preparation and treatment of macrophages. Primary mouse macrophages were prepared by first introducing 3 mL of 3% thioglycolate to mice via intraperitoneal injection. After 3 days, 10 mL of chilled PBS was introduced intraperitoneally to flush out macrophages. The cell suspension was then separated by centrifugation at 300×g for 5 minutes. Cells were seeded in culture dishes containing DMEM with 10% FBS for 1 hour before being washed with serum-free DMEM two times to remove unattached cells. The cells were incubated in serum-free DMEM for 16 hours before treatment. To treat the macrophages, cells were incubated for 6 to 24 hours in DMEM without FBS with addition of LPS (Sigma-Aldrich), Pam3CSK4 (Invivogen), or SoL A. Cells were finally washed twice with Dulbecco's phosphate-buffered saline before being lysed for total RNA or protein extraction.
# mRNA extraction and RT-qPCR in macrophage-based assays. […] The quality and quantity of RNA was then determined using a nanodrop and 1000 ng of mRNA from each sample was used for cDNA synthesis using a First-strand cDNA Synthesis System (Marligen Bioscience), qPCRs reactions were prepared in a 20 uL final volume containing Fast Start Universal SYBR Green Master (Rox) (Roche Applied Science), cDNA template, deionized water, and primers and probes for IL-1β, TNFα, IL-6, and the 18S rRNA which was used as a housekeeping gene Cycling conditions were 95° C. for 10 min followed by 40 cycles of 95° C. for 10 seconds, 60° C. for 15 seconds, and 68° C. for 20 seconds, then a melting curve analysis from 60° C. to 95° C. every 0.2° C. was obtained. […] Relative gene expression levels were calculated using the ΔΔCT method and expression levels of 18S were used to normalize the results.
# [2] = piroxicam-accelerated Il10-deficient mouse IBD model; assay type: in vivo
# Protocol: Experimental validation of the predictions of Example 1 were carried out using a mouse model of IBD. […] Stimulation of mucosal Toll-like receptors (TLRs) stemming from this mucosal barrier breakdown was another factor in the selection of this model, as it has been previously shown that SoL A suppresses LPS-induced inflammation and LPS is well-known to activate TLR signaling. […]
# Fecal material was collected from IBD 1/10−/−+piroxicam (n=7, female) and pre-IBD control//10−/−mice (n=4, female), extracted metabolites, and the abundance of SoLs was measured by targeted metabolomics using high performance liquid chromatography (HPLC)-high resolution mass spectrometry (HRMS). […] Metabolites with m/z corresponding to major SoLs were detected, specifically SoLs A and B, in all samples tested and their identities were unambiguously determined by HPLC-MS/MS. […]
# Peak areas were calculated using TICs obtained after MS/MS fragmentation and used to measure the abundance of SoLs A and B. Significance was determined using Student's t-test. […] Significance was determined using Mann-Whitney U test. […]
# Piroxicam-accelerated 1110−/−mouse IBD model and analysis. […] Mice were euthanized at 18 days to collect tissues for assessment and intestinal contents for quantification of SoLs. […] Inflammation scores of colon sections were blindly assessed using an Echo Revolve light microscope and accompanying software. […]
# TLR4 = assay: LPS-induced cytokine expression in primary mouse macrophages (RT-qPCR); assay type: cell-based; conditions: SoL A together with LPS, p≤0.0001
# Protocol: as §1
# Preparation and treatment of macrophages. Primary mouse macrophages were prepared by first introducing 3 mL of 3% thioglycolate to mice via intraperitoneal injection. After 3 days, 10 mL of chilled PBS was introduced intraperitoneally to flush out macrophages. The cell suspension was then separated by centrifugation at 300×g for 5 minutes. […]
# mRNA extraction and RT-qPCR in macrophage-based assays. […] The quality and quantity of RNA was then determined using a nanodrop and 1000 ng of mRNA from each sample was used for cDNA synthesis using a First-strand cDNA Synthesis System (Marligen Bioscience), qPCRs reactions were prepared in a 20 uL final volume containing Fast Start Universal SYBR Green Master (Rox) (Roche Applied Science), cDNA template, deionized water, and primers and probes for IL-1β, TNFα, IL-6, and the 18S rRNA which was used as a housekeeping gene Cycling conditions were 95° C. for 10 min followed by 40 cycles of 95° C. for 10 seconds, 60° C. for 15 seconds, and 68° C. for 20 seconds, then a melting curve analysis from 60° C. to 95° C. every 0.2° C. was obtained. […]
# TLR1/2 = assay: Pam3CSK4-induced cytokine expression in primary mouse macrophages (RT-qPCR); assay type: cell-based
# Protocol: as §1
# On FIG. 16, bars represent mean±standard error. For each treatment, n=3. Significance was determined using Student's t test: * p<0.05, **** p<[…] 0.0001.
# Preparation and treatment of macrophages. Primary mouse macrophages were prepared by first introducing 3 mL of 3% thioglycolate to mice via intraperitoneal injection. After 3 days, 10 mL of chilled PBS was introduced intraperitoneally to flush out macrophages. The cell suspension was then separated by centrifugation at 300×g for 5 minutes. Cells were seeded in culture dishes containing DMEM with 10% FBS for 1 hour before being washed with serum-free DMEM two times to remove unattached cells. The cells were incubated in serum-free DMEM for 16 hours before treatment. […]
# mRNA extraction and RT-qPCR in macrophage-based assays. […] Relative gene expression levels were calculated using the ΔΔCT method and expression levels of 18S were used to normalize the results.
# THP-1 monocytes [3] = assay: M1 polarization of THP-1 derived macrophages (RT-qPCR of markers); assay type: cell-based; conditions: 10 µM SoL A with IFN-γ and LPS, 24 hours, n=3
# Protocol: (§2) THP-1 monocytes were treated with IFN-γ and LPS to induce M1 polarization or IL-4 and IL-1β to induce M2 polarization. Successful induction of M1 and M2 polarization was confirmed by morphology changes and subsequent RT-qPCR quantification of cytokine profiles.
# (§3) For all treatments, n=3 and significance was determined using one-way ANOVA: 0.001<p<0.01, *** 0.0001<p<0.001, and **** p<0.0001.
# (§4) THP-1 monocytes were maintained in RPMI16 with 10% heat inactivated FBS, 1% Penicillin-Streptomycin-Ampotericin B, and 50 μM 2-mercaptoethanol prior to differentiation. The cells were differentiated into macrophages with 150 nM PMA for 48 hours. M1 polarization was induced by adding 20 ng/ml IFN-γ and […] LPS for 24 hours. M2 polarization was induced by adding 20 ng/ml IL-4 and 20 ng/ml IL-1β for 24 hours. In all tests, 10 µM Sol A was added at the same time as M1 and M2 differentiation agents. After 24 hours of treatment, total RNA was collected, and RT-qPCR was performed as described above.
# MD-2 = molecular target: T1, MD-2 (Homo sapiens, UniProt Q9Y6Y9); assay: ELISA-based displacement assay with biotinylated LPS; assay type: binding
# T1 construct: purchased Novus Biologicals
# T1 sequence (Q9Y6Y9 19-160): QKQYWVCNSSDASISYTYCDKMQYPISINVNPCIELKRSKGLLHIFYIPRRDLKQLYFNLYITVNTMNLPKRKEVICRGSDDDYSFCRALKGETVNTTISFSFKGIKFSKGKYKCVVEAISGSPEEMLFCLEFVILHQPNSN
# Protocol: To experimentally determine if SoLs A and B bind to MD-2 and to what extent the SoLs compete with LPS for binding to MD-2, an ELISA-based displacement assay was conducted. Taking advantage of biotinylated LPS, which retains the activity of unconjugated LPS, absorbance generated by an HRP-linked streptavidin probe was measured to determine the relative amount of MD-2 that was bound with biotin-LPS as opposed to MD-2 bound with SoL A or B. 0.1, 1.0, and 10 µM concentrations of SOL A or B and 1 ng/ml biotin-LPS were administered to MD-2 in three sequences: 1) Sol first followed by LPS 1 hour later, 2) LPS first followed by Sol 1 hour later, and 3) both SoL A or B and LPS at the same time.
# ELISA displacement assay. Solid-phase sandwich ELISA kits were purchased from Invitrogen. The ELISA experiments were performed according to the kit instructions, using 50 nM hMD-2 (Novus Biologicals), 1 ng/mL LPS-EB Biotin (Invivogen), and 0.1, 1.0, and 10 µM purified SoL A. SOL A was added to the assay 1 hour before, 1 hour after, or simultaneously with LPS-EB Biotin. Absorbance was measured at 450 nm using a BioTek microplate reader.
# THP-1 monocytes [4] = assay: M2 polarization of THP-1 derived macrophages (RT-qPCR of markers); assay type: cell-based; conditions: 10 µM SoL A with IL-4 and IL-1β, 24 hours, n=3
# Protocol: as §2, §3, §4
# [5] = in vivo inflammation after intraperitoneal injection of SoL A; design: species or system mouse; conditions: 1 mg/kg i.p.
# Protocol: To test whether SoL A can induce inflammation in vivo, mice were treated by intraperitoneal (i.p.) injection of 1 mg/kg of SOL A. At 2 hrs post-injection, FACS analysis of immune cells in the peritoneal exudate was performed.
# peritoneal macrophages = assay: inflammatory cytokine expression in macrophages treated with purified SoL A (qRT-PCR); assay type: cell-based; conditions: 10UM (FIG. 32 legend)
# Macrophages = assay: Western blot of TLR4 downstream signaling in LPS-treated macrophages; assay type: cell-based; conditions: 100 ng/ml LPS, 30 minutes
# Protocol: Macrophages were treated with 100 ng/ml LPS in the presence of increasing concentrations of Sol A or B (from 0 to 20 μM) for 30 minutes. Following treatment, all cellular protein was extracted using MPER lysis buffer (Thermo Scientific). Protein samples were loaded onto SDS-PAGE gels for separation, then transferred to nitrocellulose membranes (Amersham Biosciences). Primary antibodies and HRP-conjugated secondary antibodies (Cell Signaling Technology) were used to detect target proteins. Signal was detected using an ECL kit (Thermo Scientific). […] The housekeeping gene β-Actin was used as a loading control.
# [6] = SoL added first, LPS 1 hour later, vs LPS first or together, all concentrations 0.1, 1.0, 10 µM, 1 ng/ml biotin-LPS
# [7] = moving from low to high concentrations of SoL (0.1, 1.0, 10 µM)
Molecule,"expression of inflammatory cytokines (IL-6, TNFα, IL-1β) compared to control [1]",percent absorbance (MD-2 bound with biotin-LPS) (MD-2; [6]),percent absorbance (MD-2 bound with biotin-LPS) (MD-2; [7]),LPS-induced IκBα degradation (Macrophages; SoL 0 to 20 μM),LPS-induced phosphorylation of p38 and ERK1/2 (Macrophages; SoL 0 to 20 μM),LPS-induced phosphorylation of p38 and ERK1/2 (Macrophages; SoL at 20 µM),other results
Pam3CSK4,significant induction,,,,,,
CN1C(C(=O)Nc2ccccn2)=C(O)c2ccccc2S1(=O)=O [piroxicam],,,,,,,"histological analysis of mouse distal colon ([2]; 1/10−/− mice, diet with 100 ppm piroxicam, 18 days): induced intestinal inflammation; colon expression of inflammatory markers TNFα, NOS2, IL-6, and IL-1β ([2]; 1/10−/−+piroxicam mice vs control, Mann-Whitney U test): significantly increased"
"CC(C)CCCCCCCCCCC[C@@H](O)CC(=O)N[C@@H](CS(=O)(=O)O)[C@H](O)CCCCCCCCCCCC(C)C [SoL A, sulfobacin A]",mild to moderate effect,marked decrease,decreased dramatically,concentration-dependently suppressed,reduced LPS-induced phosphorylation of p38 and ERK1/2 in a concentration-dependent manner,almost completely blocked,"expression of all three cytokines (IL-6, TNFα, IL-1β) induced by LPS (TLR4): significantly suppress; Pam3CSK4-induced IL-6 and TNFα expression (TLR1/2; SoL A together with Pam3CSK4): inhibited Pam3CSK4-induced IL-6 and TNFα to a smaller extent; IL-1β expression induced by Pam3CSK4 (TLR1/2; SoL A together with Pam3CSK4, p≤0.05): increasing; production of M1-polarized macrophage markers IL-6, CXCL10, IL-12β, and TNFα (THP-1 monocytes [3]): significantly reduced; effect on M2 polarization (marker expression) (THP-1 monocytes [4]): mostly non-significant effect; monocytes and neutrophils in the peritoneal exudate ([5]; 2 hrs post-injection, FACS): more monocytes (Mono) and neutrophils (Neut) were recruited; serum IL-6 levels ([5]; ELISA): significantly and consistently increased; expression levels of pro-inflammatory cytokines IL-1a, IL-1B, IL-6, and TNFα (peritoneal macrophages): significantly increased"
"CC(C)CCCCCCCCCCCC(=O)N[C@@H](CS(=O)(=O)O)[C@H](O)CCCCCCCCCCCC(C)C [SoL B, sulfobacin B]",,marked decrease,decreased dramatically,concentration-dependently suppressed,reduced LPS-induced phosphorylation of p38 and ERK1/2 in a concentration-dependent manner,almost completely blocked,
lipopolysaccharide [LPS],significant induction,,,,,,
